According to ChEMBL document CHEMBL1201862, “PubChem BioAssay data set” (2004):
Activity calls are given as the source filed them.

Experiments:
Phospholipase A2 = Phospholipase A2 (Homo sapiens, UniProt P04054); format: functional;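 further: confirmatory dose-response counterscreen on phospholipase A2, testing hits that came from an ultra-high-throughput screen for ATG4B inhibitors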
Cysteine protease ATG4B = Cysteine protease ATG4B (Homo sapiens, UniProt Q9Y4P1); format: functional;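 further: Fluorescence-based dose-response confirmation assay measuring inhibition of ATG4B activity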
[1] = biological target: Type-1 angiotensin II receptor (Homo sapiens, UniProt P30556); test: AT1 receptor antagonists, dose response, selectivity assay for APJ receptor antagonist project, cell-based, uHTS hits (AID 463214); format: functional;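 further: antagonist potency against angiotensin II stimulated AT1 response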
Beta-galactosidase = Beta-galactosidase (Escherichia coli, UniProt Q8VNN2); test: PubChem AID 485352; format: functional
[2] = biological target: Delta-type opioid receptor (Homo sapiens, UniProt P41143); test: Counterscreen for agonists of heterodimerization of the mu 1 (OPRM1) and delta 1 (OPRD1) opioid receptors: Luminescence-based cell-based high throughput dose response assay to identify agonists of OPRD1 homodimerization. [Related pubchem assays (depositor defined):AID504326, AID504355, AID504692, AID504904, AID504905]; format: functional
[3] = biological target: 5-hydroxytryptamine receptor 5A (Homo sapiens, UniProt P47898); test: Counterscreen for agonists of OPRM1-OPRD1 heterodimerization: luminescence-based cell-based high throughput dose response assay to identify agonists of 5-hydroxytryptamine (serotonin) 5A receptor (HTR5A). [Related pubchem assays (depositor defined):AID504326, AID504355, AID504692, AID504904, AID504905]; format: functional
Mu-type opioid receptor = Mu-type opioid receptor (Homo sapiens, UniProt P35372); test: Counterscreen for agonists of heterodimerization of the mu 1 (OPRM1) and delta 1 (OPRD1) opioid receptors: Luminescence-based cell-based high throughput dose response assay to identify agonists of OPRM1 homodimerization.; format: functional;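 further: U2OS cells expressing OPRM1 and beta-arrestin as split beta-galactosidase partners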
[4] = biological target: T1, Short transient receptor potential channel 4 (Mus musculus, UniProt Q9QUQ5); test: mouse TRPC4 channel activators, dose response, cell-based, HEK293 TRPC4/mu-opioid, Fluo-4 calcium (AID 434937); format: functional
T1 sequence (Q9QUQ5 whole entry): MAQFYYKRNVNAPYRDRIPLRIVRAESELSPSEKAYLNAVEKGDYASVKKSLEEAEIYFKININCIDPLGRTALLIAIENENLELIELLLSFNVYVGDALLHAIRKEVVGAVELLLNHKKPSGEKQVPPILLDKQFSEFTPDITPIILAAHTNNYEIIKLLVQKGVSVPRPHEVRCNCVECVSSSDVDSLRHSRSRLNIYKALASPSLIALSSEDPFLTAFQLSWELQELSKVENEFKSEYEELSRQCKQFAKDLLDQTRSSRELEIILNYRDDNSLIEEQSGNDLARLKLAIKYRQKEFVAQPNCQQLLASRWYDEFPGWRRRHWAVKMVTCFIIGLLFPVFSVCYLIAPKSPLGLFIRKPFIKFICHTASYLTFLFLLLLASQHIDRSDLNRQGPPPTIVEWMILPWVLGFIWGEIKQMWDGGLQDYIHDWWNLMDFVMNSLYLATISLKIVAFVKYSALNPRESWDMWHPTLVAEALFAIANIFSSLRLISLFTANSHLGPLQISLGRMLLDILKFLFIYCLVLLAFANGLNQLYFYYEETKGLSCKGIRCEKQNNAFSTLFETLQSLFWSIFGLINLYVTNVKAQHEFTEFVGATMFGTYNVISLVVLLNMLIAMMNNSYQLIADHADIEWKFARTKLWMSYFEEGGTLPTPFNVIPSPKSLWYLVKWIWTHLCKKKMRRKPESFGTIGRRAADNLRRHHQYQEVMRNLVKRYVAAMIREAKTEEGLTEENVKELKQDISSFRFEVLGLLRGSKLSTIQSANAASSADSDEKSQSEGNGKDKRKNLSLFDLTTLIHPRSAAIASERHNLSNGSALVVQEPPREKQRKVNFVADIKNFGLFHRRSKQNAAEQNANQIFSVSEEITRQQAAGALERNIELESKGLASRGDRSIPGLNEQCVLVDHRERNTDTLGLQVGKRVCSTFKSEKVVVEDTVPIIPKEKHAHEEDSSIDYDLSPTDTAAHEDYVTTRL

Escherichia coli [5] = test: microbe, parasite or virus in culture
Escherichia coli [6] = test: microbe, parasite or virus in culture; remark: listed apart in the source

Phospholipase A2, sequence (P04054 whole entry): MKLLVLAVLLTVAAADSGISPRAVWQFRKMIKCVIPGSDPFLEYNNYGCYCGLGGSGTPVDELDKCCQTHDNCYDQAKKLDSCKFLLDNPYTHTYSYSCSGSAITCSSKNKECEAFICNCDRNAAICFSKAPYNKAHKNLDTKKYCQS
Type-1 angiotensin II receptor, sequence (P30556 whole entry): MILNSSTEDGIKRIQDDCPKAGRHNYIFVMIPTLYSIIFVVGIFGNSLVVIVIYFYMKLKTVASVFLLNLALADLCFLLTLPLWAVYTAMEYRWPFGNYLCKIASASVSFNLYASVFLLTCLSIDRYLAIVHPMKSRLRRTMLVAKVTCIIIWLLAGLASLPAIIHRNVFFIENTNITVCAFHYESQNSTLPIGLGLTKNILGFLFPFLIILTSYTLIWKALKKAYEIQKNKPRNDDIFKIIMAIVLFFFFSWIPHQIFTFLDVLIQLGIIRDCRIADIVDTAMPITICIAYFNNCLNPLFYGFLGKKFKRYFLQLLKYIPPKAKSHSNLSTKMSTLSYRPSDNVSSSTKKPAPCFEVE
Cysteine protease ATG4B, sequence (Q9Y4P1 whole entry): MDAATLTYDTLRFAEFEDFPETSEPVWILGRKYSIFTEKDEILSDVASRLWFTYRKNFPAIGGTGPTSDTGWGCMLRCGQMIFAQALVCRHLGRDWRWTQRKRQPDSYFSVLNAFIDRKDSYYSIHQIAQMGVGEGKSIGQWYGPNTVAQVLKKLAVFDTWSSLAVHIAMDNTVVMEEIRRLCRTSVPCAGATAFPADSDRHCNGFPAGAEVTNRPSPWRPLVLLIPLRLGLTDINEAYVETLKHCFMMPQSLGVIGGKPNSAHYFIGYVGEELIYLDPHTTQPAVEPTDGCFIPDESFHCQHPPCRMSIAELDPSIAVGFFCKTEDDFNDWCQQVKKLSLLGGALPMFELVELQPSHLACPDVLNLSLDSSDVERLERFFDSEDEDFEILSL
Beta-galactosidase, sequence (Q8VNN2 whole entry): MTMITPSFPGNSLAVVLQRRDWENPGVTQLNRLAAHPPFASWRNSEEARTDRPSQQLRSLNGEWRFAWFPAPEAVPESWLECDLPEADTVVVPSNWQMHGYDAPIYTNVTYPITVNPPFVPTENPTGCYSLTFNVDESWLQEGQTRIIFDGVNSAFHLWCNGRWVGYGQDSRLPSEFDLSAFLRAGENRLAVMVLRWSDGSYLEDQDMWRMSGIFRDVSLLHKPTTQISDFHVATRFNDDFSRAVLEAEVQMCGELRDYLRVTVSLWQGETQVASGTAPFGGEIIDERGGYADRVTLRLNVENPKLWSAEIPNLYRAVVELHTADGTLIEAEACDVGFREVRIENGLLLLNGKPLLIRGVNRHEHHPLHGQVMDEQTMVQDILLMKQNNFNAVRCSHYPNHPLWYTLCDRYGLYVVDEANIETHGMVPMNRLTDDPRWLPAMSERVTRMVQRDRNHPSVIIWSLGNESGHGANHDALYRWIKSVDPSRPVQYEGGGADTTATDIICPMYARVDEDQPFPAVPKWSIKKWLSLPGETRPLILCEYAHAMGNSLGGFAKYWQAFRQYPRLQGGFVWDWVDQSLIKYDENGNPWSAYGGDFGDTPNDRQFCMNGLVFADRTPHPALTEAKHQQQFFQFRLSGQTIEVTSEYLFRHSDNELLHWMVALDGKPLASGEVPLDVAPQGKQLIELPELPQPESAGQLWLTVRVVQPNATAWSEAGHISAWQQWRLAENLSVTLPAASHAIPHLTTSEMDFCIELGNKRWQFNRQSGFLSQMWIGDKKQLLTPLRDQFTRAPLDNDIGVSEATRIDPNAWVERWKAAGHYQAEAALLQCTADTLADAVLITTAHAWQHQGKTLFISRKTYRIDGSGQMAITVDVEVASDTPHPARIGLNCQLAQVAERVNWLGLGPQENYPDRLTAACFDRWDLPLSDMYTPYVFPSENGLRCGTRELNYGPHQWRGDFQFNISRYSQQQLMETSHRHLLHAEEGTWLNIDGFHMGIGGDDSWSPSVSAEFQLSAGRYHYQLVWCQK
5-hydroxytryptamine receptor 5A, sequence (P47898 whole entry): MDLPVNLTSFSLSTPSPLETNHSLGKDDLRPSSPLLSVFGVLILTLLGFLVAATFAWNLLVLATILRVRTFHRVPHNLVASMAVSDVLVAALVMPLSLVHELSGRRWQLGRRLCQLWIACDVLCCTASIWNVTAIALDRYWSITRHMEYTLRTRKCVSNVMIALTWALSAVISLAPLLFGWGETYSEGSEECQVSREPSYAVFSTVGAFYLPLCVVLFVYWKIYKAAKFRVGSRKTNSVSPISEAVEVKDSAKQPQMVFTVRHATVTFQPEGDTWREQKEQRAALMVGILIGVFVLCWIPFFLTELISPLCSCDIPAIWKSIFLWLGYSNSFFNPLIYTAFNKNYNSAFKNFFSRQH
Delta-type opioid receptor, sequence (P41143 whole entry): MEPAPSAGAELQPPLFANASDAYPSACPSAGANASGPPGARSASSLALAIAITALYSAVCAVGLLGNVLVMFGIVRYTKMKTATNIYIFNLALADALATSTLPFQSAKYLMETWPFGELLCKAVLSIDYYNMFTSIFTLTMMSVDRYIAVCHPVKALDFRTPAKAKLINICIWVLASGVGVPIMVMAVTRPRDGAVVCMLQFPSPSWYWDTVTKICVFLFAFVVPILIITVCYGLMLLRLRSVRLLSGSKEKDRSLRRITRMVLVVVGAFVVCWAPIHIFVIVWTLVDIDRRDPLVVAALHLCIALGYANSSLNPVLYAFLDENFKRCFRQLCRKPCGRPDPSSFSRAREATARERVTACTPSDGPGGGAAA
Mu-type opioid receptor, sequence (P35372 whole entry): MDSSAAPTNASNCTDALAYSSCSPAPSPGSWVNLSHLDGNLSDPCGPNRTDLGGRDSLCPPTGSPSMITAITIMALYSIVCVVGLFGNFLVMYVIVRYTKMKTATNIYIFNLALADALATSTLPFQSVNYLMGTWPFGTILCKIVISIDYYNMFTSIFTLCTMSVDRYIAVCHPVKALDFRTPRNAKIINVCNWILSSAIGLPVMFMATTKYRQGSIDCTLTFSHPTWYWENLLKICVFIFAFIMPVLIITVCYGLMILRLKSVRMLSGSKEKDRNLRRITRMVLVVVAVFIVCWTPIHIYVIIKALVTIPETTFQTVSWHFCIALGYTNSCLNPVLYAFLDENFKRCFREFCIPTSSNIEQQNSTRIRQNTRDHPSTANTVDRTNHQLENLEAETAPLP

Row | Structure (SMILES) | IC50 (Phospholipase A2) | IC50 (Cysteine protease ATG4B) | IC50 [1] | EC50 (Beta-galactosidase) | other results
1 | O=C(CNCC1CCCCC1)Nc1ccccc1N1CCCCC1 | 9.35 µM (active) | 10.8 µM (active) | – | – | –
2 | Cc1ccc(C(=O)NCC(=O)OCC(=O)c2ccc(C)c([N+](=O)[O-])c2)cc1 | – | – | 36.4 µM (not active) | > 40 µM (inactive) | –
3 | CCOC(=O)C1(CC2CCCCO2)CCN(Cc2cc(F)ccc2-n2cccn2)CC1 (centres undefined) | – | – | – | – | EC50 [2]: > 92.5 µM (inactive); EC50 [3]: > 92.5 µM (inactive); EC50 (Mu-type opioid receptor): > 92.5 µM (inactive); EC50 [4]: 0.473 µM (active)
4 | CSc1cccc(N=C2C(=O)Nc3ccccc32)c1 | – | – | > 40 µM (not active) | > 40 µM (inactive) | –
5 | COCCCn1c(SCCc2ccccc2)nc2cc(OC)c(OC)cc2c1=N | – | – | – | – | AC50 (Escherichia coli [5]): 51.3 µM (active); AC50 (Escherichia coli [6]): 37.6 µM (active)
6 | COC(=O)c1sc(N(C)C)c(C#N)c1-c1ccccc1 | 8.76 µM (active) | 12.4 µM (active) | – | – | –
